Results reported in patent EP0530016B1, “Piperidine derivative and pharmaceutical composition containing it” (Ajinomoto Co., Inc., priority 1991, dated 1993).

Tests used:
[1] = tested on: spontaneously hypertensive rats; assay: Antihypertensive effect after intravenous bolus injection, tail-cuff systolic blood pressure; assay type: in vivo; conditions: dose 10 mg/kg, reduction in systolic blood pressure from basal values, male spontaneously hypertensive rats
Protocol: Two male spontaneously hypertensive rats (body weight 400-440g) and in which hypertension was confirmed were used as test animals. These were obtained from Charles River Japan (Kanagawa, Japan) and were maintained in a pathogen free state until used.
An aqueous solution of the derivative prepared in Example 1 above in physiological saline containing 2.5% Nicolle TM and 2.5% ethanol was intravenously administered by bolus injection in a does of 1ml per 1 kg body weight. Systolic blood pressure (SBP) after administration was measured by an indirect (tail-cuff) method. The antihypertensive effect was shown as a reduction in blood pressure (mmHg) from the basal values.

[2] = tested on: spontaneously hypertensive rats; assay: Antihypertensive effect after oral administration, tail-cuff systolic blood pressure; assay type: in vivo; conditions: dose 6 mg/kg, reduction in systolic blood pressure from basal values, male spontaneously hypertensive rats; for dSBP (mmHg) 2hr: 2hr after administration; for dSBP (mmHg) 6hr: 6hr after administration
Protocol: Four male spontaneously hypertensive rats (body weight 400-440g) and in which hypertension was confirmed were used. These were obtained from Charles River Japan (Kanagawa, Japan and were maintained in a pathogen free state until used.
A 5% arabic gum aqueous suspension of each sample was administered orally in a dose of 1ml per kg body weight. Systolic blood pressure after administration was measured by an indirect (tail-cuff) method. Antihypertensive effect was shown as a reduction in blood pressure (mmHg) from the basal values.

[3] = tested on: platelet aggregation induced by a combination of ADP and serotonin; assay: Inhibition of the increased platelet aggregation caused by serotonin in platelet rich plasma; assay type: cell-based; conditions: Oryctolagus cuniculus; rabbit platelet rich plasma; ADP (1.5»M) and serotonin (5»M); 50% inhibition of the increased platelet aggregation caused by serotonin
Protocol: Blood was obtained from rabbit and was treated with 3.8% sodium citrate. Platelet rich plasma (PRP) was prepared by centrifugation at 1200 rpm for 10 min at room temperature. The platelet aggregation induced by adenosine diphosphate (ADP) (1.5»M) and by a combination of ADP (1.5»M) and serotonin (5»M) was measured. Then the concentration of piperidine derivative required to produce 50% inhibition of the increased platelet aggregation caused by serotonin compared with the control was calculated as IC50.

SMILES | dSBP (mmHg) 0.5hr ([1]; 0.5hr after administration) [mmHg] | dSBP (mmHg) 4hr ([1]; 4hr after administration) [mmHg] | dSBP (mmHg) 2hr [2] [mmHg] | dSBP (mmHg) 6hr [2] [mmHg] | IC50 [3] [nM]
NS(=O)(=O)c1ccc(C=CCN2CCC(=C3c4ccccc4C=Cc4ccccc43)CC2)cc1 [Example 1, 1-(4-Aminosulfonylcinnamyl)-4-(5H-dibenzo[a,d]cyclohepten-5-ylidene)piperidine] | -83 | -95 | -37 | -48 | 200
NS(=O)(=O)c1ccc(C=CCN2CCC(=C3c4ccccc4CSc4ccccc43)CC2)cc1 [Example 2, 11-[1-(4-Aminosulfonylcinnamyl)-4-piperidinylidene]-6,11-dihydrodibenzo[b,e]thiepin] | – | – | -31 | -43 | 251
